From ChEMBL document CHEMBL5356945, “Discovery of PFI-6, a small-molecule chemical probe for the YEATS domain of MLLT1 and MLLT3” (Bioorg Med Chem Lett, 2024)
≈ marks a conversion by molar mass, not a printed value.

What was measured:
Protein AF-9 [1] = target: T1, Protein AF-9 (Homo sapiens, UniProt P42568); assay: Inhibition of MLLT3 YD domain (unknown origin) assessed as disruption of histone peptide binding using histone peptide as substrate by HTRF assay
T1 sequence (P42568 whole entry): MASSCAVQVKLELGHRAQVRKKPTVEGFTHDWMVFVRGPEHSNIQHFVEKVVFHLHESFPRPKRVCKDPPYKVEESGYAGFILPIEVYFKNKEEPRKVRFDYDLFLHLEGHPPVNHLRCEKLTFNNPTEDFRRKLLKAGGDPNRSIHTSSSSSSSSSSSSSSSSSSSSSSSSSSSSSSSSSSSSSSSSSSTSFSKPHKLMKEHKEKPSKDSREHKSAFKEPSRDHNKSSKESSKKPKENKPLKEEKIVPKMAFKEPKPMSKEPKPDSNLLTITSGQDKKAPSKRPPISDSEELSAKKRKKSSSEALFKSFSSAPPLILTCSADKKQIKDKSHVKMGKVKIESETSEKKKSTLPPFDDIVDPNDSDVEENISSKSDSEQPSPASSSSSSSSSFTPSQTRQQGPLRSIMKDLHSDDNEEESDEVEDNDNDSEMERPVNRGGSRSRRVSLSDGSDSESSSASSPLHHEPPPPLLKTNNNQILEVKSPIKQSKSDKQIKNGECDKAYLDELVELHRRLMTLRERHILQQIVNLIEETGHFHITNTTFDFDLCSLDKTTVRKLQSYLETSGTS

[2] = target: T2, YEATS domain-containing protein 4 (Homo sapiens, UniProt O95619); assay: Inhibition of YEATS4 YD domain (unknown origin) assessed as disruption of histone peptide binding using histone peptide as substrate by HTRF assay
[3] = target: T3, YEATS domain-containing protein 2 (Homo sapiens, UniProt Q9ULM3); assay: Inhibition of YEATS2 YD domain (unknown origin) assessed as disruption of histone peptide binding using histone peptide as substrate by HTRF assay
T3 sequence (Q9ULM3 whole entry): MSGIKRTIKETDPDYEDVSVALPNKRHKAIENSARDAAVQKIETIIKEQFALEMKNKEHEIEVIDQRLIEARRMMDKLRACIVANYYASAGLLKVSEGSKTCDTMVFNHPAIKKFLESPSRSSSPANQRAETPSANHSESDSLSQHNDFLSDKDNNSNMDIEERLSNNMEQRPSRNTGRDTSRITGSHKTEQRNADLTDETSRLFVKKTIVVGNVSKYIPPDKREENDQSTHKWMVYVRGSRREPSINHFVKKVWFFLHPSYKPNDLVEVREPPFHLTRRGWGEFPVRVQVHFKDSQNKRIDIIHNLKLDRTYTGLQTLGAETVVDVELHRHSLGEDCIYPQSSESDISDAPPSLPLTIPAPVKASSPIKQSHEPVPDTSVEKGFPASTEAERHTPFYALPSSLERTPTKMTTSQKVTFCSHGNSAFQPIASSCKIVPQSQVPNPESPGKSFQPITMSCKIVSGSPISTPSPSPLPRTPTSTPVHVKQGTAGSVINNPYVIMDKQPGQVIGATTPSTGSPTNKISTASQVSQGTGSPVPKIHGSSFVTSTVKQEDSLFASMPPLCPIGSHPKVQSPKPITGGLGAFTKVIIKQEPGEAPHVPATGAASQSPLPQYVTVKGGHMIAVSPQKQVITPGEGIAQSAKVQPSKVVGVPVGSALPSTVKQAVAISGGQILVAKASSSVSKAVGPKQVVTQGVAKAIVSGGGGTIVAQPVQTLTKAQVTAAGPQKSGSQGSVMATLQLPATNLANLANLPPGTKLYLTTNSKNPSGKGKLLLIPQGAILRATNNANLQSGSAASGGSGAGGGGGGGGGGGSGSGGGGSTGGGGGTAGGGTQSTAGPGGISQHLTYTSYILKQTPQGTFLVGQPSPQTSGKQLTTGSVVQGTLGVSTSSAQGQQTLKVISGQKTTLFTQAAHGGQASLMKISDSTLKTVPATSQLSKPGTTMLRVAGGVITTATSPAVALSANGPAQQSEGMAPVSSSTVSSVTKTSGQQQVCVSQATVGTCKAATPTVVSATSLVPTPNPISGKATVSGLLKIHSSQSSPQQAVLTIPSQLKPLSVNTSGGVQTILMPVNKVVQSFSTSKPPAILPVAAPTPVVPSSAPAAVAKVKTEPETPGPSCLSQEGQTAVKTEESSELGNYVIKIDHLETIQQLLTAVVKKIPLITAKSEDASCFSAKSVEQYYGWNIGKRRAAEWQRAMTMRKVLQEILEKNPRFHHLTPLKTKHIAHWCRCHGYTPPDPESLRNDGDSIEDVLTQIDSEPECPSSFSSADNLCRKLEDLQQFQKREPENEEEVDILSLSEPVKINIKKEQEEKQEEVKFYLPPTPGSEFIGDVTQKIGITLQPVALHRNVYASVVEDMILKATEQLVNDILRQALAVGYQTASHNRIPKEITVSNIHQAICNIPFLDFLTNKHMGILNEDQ

Protein ENL [4] = target: T4, Protein ENL (Homo sapiens, UniProt Q03111); assay: Inhibition of MLLT1 YD domain (unknown origin) assessed as disruption of histone peptide binding using histone peptide as substrate by HTRF assay
T4 sequence (Q03111 whole entry): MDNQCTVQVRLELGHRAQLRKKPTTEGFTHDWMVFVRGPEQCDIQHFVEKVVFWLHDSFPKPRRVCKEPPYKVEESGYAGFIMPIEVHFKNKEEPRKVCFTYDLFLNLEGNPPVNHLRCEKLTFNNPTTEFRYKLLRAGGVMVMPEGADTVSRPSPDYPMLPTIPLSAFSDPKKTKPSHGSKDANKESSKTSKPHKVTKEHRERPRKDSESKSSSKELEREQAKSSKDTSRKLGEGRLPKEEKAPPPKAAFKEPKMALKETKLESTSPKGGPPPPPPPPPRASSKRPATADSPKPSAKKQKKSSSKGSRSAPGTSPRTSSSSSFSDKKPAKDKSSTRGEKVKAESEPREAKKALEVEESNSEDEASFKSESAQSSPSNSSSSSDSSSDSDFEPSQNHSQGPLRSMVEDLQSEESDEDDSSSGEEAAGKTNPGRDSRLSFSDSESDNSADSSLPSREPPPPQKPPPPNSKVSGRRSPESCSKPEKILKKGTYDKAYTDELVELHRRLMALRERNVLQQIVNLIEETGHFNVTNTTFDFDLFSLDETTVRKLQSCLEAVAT

Protein ENL [5] = target: T4, Protein ENL; assay: Inhibition of His-tagged MLLT1 YD domain (unknown origin) assessed as disruption of protein binding to histone peptide using biotinylated histone peptide as substrate by AlphaScreen assay
[6] = Metabolic stability in human hepatocytes assessed as apparent intrinsic clearance measured per million cells; format: ADME, cell-based, Hepatocyte
[7] = Cytotoxicity against human THLE cells assessed as decrease in cellular ATP by CellTiter-Glo assay; format: toxicity, cell-based
[8] = target: Voltage-gated inwardly rectifying potassium channel KCNH2 (Homo sapiens, UniProt Q12809); assay: Inhibition of human ERG assessed as inhibition constant by patch-clamp assay; format: toxicity
[9] = Kinetic solubility of compound at pH 7.4; format: physicochemical; details: buffer, read-out: Kinetic_solubility
[10] = Passive apparent permeability in dog MDCK cells; format: ADME, cell-based, Canis lupus familiaris
[11] = target: T5, YEATS domain-containing protein 2 (Homo sapiens) (UniProt Q9ULM3); assay: Binding affinity to YEATS2 YD domain (unknown origin) assessed as change in melting temperature by thermal shift assay
T5 sequence (whole entry): T3 sequence (Q9ULM3 whole entry)

[12] = target: T6, Protein ENL (Homo sapiens) (UniProt Q03111); assay: Binding affinity to MLLT1 YD domain (unknown origin) assessed as change in melting temperature by thermal shift assay
T6 sequence (whole entry): T4 sequence (Q03111 whole entry)

[13] = Lipophilicity, logD of the compound by shake flask method; format: physicochemical; details: octanol/water
[14] = target: T2, YEATS domain-containing protein 4; assay: Binding affinity to YEATS4 YD domain (unknown origin) assessed as change in melting temperature by thermal shift assay
[15] = target: T7, Protein AF-9 (Homo sapiens) (UniProt P42568)
T7 sequence (whole entry): T1 sequence (P42568 whole entry)
Description: Binding affinity to MLLT3 YD domain (unknown origin) assessed as change in melting temperature by thermal shift assay

[16] = target: T6, Protein ENL (Homo sapiens); assay: Inhibition of His-tagged MLLT1 YD domain (unknown origin) assessed as disruption of protein binding to histone peptide using biotinylated histone peptide as substrate at 100 uM by AlphaScreen assay
Protein AF-9 [17] = target: T1, Protein AF-9; assay: Binding affinity to MLLT3 in human HEK293 cells by NanoBRET assay; format: cell-based

T2 sequence (O95619 whole entry, the tested form may be a part): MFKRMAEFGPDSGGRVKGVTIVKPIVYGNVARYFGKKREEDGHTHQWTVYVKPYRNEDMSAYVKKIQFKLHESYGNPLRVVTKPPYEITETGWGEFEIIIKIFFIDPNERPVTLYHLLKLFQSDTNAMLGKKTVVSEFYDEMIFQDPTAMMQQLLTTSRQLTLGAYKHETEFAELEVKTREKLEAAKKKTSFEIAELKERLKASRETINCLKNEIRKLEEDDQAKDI
Chain of Voltage-gated inwardly rectifying potassium channel KCNH2 (Q12809 whole entry): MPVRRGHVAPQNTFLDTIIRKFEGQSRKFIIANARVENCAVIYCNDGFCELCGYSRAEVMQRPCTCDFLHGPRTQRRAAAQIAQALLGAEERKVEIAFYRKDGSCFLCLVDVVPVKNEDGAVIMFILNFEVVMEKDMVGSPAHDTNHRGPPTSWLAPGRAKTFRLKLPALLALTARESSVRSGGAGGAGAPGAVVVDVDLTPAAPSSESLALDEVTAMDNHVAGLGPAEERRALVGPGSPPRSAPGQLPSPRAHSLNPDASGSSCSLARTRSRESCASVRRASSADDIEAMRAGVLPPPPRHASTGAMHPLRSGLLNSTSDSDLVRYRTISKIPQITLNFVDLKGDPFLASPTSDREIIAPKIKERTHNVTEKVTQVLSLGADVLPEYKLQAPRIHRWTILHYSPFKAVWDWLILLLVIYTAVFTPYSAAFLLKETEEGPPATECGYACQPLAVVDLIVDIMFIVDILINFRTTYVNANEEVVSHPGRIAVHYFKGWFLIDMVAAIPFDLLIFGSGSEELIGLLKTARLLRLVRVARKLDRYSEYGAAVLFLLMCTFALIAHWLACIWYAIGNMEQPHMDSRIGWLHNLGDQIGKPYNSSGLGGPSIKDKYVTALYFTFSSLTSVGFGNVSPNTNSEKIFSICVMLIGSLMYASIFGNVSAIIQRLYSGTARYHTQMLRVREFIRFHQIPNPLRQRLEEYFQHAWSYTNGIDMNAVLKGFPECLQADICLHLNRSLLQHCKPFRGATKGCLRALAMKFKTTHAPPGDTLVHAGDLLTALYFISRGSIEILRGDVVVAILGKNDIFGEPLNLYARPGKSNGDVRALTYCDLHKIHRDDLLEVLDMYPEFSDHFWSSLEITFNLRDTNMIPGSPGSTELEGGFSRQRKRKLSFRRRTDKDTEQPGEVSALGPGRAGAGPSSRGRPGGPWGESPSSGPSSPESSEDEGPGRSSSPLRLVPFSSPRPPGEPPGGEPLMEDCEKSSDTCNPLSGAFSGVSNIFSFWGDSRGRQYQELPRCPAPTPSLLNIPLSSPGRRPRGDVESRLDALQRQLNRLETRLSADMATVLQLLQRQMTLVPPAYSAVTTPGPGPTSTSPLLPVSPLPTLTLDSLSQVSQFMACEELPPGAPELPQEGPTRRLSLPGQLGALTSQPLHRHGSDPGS

SMILES | IC50 (Protein AF-9 [1]) [µM] | IC50 [2] [µM] | IC50 [3] [µM] | IC50 (Protein ENL [4]) [µM] | IC50 (Protein ENL [5]) [µM] | other results
CN(C)C(=O)c1ccc(-c2cc(C(=O)NC3CCCC3)no2)cc1O | 0.12 | > 30 | > 30 | 0.16 | – | –
O=C(NCC1CC1)c1cc(-c2cccc(O)c2)on1 | – | – | – | – | 21.9 | –
CN(C)C(=O)c1ccc(-c2cc(C(=O)N[C@@H]3CCc4ccccc43)no2)cc1O | – | > 30 | > 30 | – | – | CLH(app) [6]: 43 µL/min; IC50 [7]: > 100 µM; Ki [8]: > 100 µM; solubility kinetic [9]: 3000 µM (≈ 1170 µg/mL); Papp [10]: 270 nm/s; ΔTm [11]: 0 °C; ΔTm [12]: 3.61 °C; logD [13]: 3.3; ΔTm [14]: -0.02 °C; ΔTm [15]: 5.13 °C
C/C=C/C(=O)NC1CCCC1 | – | – | – | – | – | inhibition [16]: 55%
O=C(NC1CC1)c1cc(-c2cccc(O)c2)on1 | – | – | – | – | 28.9 | –
CC(C)NC(=O)c1cc(-c2cccc(O)c2)on1 | – | – | – | – | 9.13 | –
O=C(NC1CCCC1)c1cc(-c2cc(O)c3cccnc3c2)on1 | 0.2 | > 30 | > 30 | 0.26 | – | –
O=C(NC1CCCC1)c1ccc2snnc2c1 | – | – | – | – | 3 | –
CN(C)C(=O)c1ccc(-c2cc(C(=O)N(C)C3CCCC3)no2)cc1O | > 30 | > 30 | > 30 | > 30 | – | IC50 (Protein AF-9 [17]): > 30 µM
C[C@H]1CCCN1Cc1nc2cc(NC(=O)c3ccc4c(cnn4C)c3)ccc2[nH]1 | – | – | – | – | – | IC50 (Protein AF-9 [17]): 0.6 µM
O=C(NC1CCCC1)c1cc(-c2cccc(O)c2Cl)on1 | > 30 | > 30 | > 30 | > 30 | – | –
O=C(NC1CCCC1)c1cnn(-c2cccc(O)c2)c1 | 2.4 | > 30 | > 30 | 3.4 | – | –
O=C(NC1CCCC1)c1cc2cc(F)ccc2[nH]1 | – | – | – | – | 5.64 | –
CN(C(=O)c1cc(-c2cccc(O)c2)on1)C1CCCC1 | – | – | – | – | > 30 | –
O=C(NC1CCCC1)c1cn(-c2cccc(O)c2)cn1 | 0.5 | > 30 | > 26 | 0.97 | – | –
O=C(NC1CCCC1)c1cc(-c2ccc(Cl)c(O)c2)on1 | 0.5 | > 5.8 | > 30 | 0.75 | – | –
O=C(NC1CCCC1)c1cc(-c2cccc(O)c2)n[nH]1 | 3.4 | > 30 | > 30 | 2.5 | – | –
O=C(NC1CCC1)c1cc(-c2cccc(O)c2)on1 | – | – | – | – | 1.14 | –
O=C(NC1CCCC1)c1cc(-c2ccc(O)cc2)on1 | – | – | – | – | 6.9 | –
O=C(NC1CCCC1)c1cc(-c2cccc(O)c2)on1 | 0.63 | > 30 | > 30 | 0.93 | 1.1 | –
